Source: US20240398824A1, “Inhibition Of Rip Kinases For Treating Neurodegenerative Disorders” (The Johns Hopkins University, priority 2018, published 2024)

Tested on: α-synuclein PFFs-induced PD mice
Assay: α-synuclein PFFs-induced PD mouse model, IHC of ventral midbrain / SN
Assay type: in vivo
Experimental: Study rationale and objectives: The purpose of this study was to investigate the anti-PD efficacy of Gefitinib, RIPK2 inhibitor, in the α-synuclein PFF model PD. To this end, α-synuclein PFF were injected into the striatum of NOD2 KO or RIPK2 KO. α-synuclein PFFs-induced PD mice were orally treated with Gefitinib (Gef) (30 mg/kg, once daily) after 1 month striatal α-synuclein PFF injection for 5 months and tissues were analyzed.
Mouse strain for stereotaxic α-synuclein PFFs injection: NOD2 or RIPK2 KO mice was obtained from the Jackson Laboratories (Bar Harbor, ME). All housing, breeding, and procedures were performed according to the NIH Guide for the Care and Use of Experimental Animals and approved by the Johns Hopkins University Animal Care and Use Committee.
α-synuclein protein purification and PFF preparation: Recombinant mouse α-synuclein proteins were purified as previously described with an IPTG-independent inducible pRK172 vector system. Endotoxin was depleted by ToxinEraser endotoxin removal kit (Genscript, NJ, USA). α-synuclein PFFs (5 mg ml^−1) was prepared in PBS while stirring with a magnetic stirrer (1,000 rpm at 37° C.). After a week of incubation of the α-synuclein protein, aggregates were diluted to 0.1 mg ml^−1 with PBS and sonicated for 30 s (0.5 s pulse on/off) at 10% amplitude (Branson Digital sonifier, Danbury, CT, USA). α-synuclein PFFs was validated using atomic force microscopy and transmission electron microscopy, and the ability to induce phospho-serine 129 α-synuclein (p-α-synSer129) was confirmed using immunostaining. α-synuclein PFFs was stored at −80° C. until use.
Stereotaxic α-synuclein PFFs injection and Immunohistochemistry (IHC): For stereotaxic injection of α-synuclein PFFs, 3 months old NOD2 KO or RIPK2 KO male and female mice were anesthetized with xylazene and ketamine. An injection cannula (26.5 gauge) was applied stereotaxically into the striatum (STR) (mediolateral, 2.0 mm from bregma; anteroposterior, 0.2 mm; dorsoventral, 2.6 mm) unilaterally into the right hemisphere. The infusion of 2 μL α-synuclein PFFs ([…] in PBS) or the same volume of PBS was performed at a rate of 0.2 μL per min. After the final dose, the injection cannula was maintained in the STR for additional 5 min for a complete absorption of the α-synuclein PFFs or PBS then slowly removed from the mouse brain. The head skin was closed by suturing and wound healing and recovery were monitored following surgery. For IHC analysis, animals were perfused and fixed intracardially with ice-cold PBS followed by 4% paraformaldehyde at 3 months after striatal α-synuclein PFFs injections. The brain was removed and processed for immunohistochemistry. IHC for pS129-α-synuclein immunoreactivity was performed at 3 months after the unilateral striatal α-synuclein PFFs injections. Treatment of Gefitinib was accomplished after one month of unilateral striatal α-synuclein PFFs injection, once daily.

COc1cc2ncnc(Nc3ccc(F)c(Cl)c3)c2cc1OCCCN1CCOCC1 [Gefitinib]
# of p-αSyn positive signal in the SN (Gefitinib 30 mg/kg oral once daily, PFF-injected mice, Veh + PFFs 32.14 ± 1.93, mean ± SEM, n = 5): 16.49 ± 2.01 | # of microglia in the SN (Gefitinib 30 mg/kg oral once daily, PFF-injected mice, Veh + PFFs 1138.72 ± 91.48, mean ± SEM, n = 5): 409.15 ± 94.27 | microglia activation in the ventral midbrain (IHC, vs non-treated PD mice, in words): suppresses microglia activation | α-synuclein PFFs induced pathologies in mice (oral administration, in words): significantly rescues α-synuclein PFFs induced pathologies | LB pathology (pS129-α-synuclein immunoreactivity) (ventral midbrain, IHC, vs non-treated PD mice, in words): significantly ameliorates LB pathology
